Results on five compounds are retold here after patent US20150141336A1, “Pancreatic Peptide Compounds and Use” (Novo Nordisk A/S, priority 2012, published 2015).

The half-life is how long it takes for the measured level to halve.

Numbered stars: 1 amine (or outer) side, 2 acyl side, 3 side chain; on linkers, the order of the positions; unused ones are H or OH. Side chains are listed from the residue outwards. Peptide text beside a SMILES is read from it. * marks the point of attachment. C18 diacid = O=C(O)CCCCCCCCCCCCCCCCC(=O)*; γGlu = O=C(O)[C@H](CCC(=O)[*:2])N[*:1]; AEEA = NCCOCCOCC(=O)O

The nature of the data set: Assay (II) PK i.v. minipig, in vivo half-life. Also on record: species or system Göttingen mini-pigs. The settings on record: male, Göttingen, minipig, iv, Half-life minipig, Assay (II). The method, boiled down: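 Plasma levels after a single 6 nmol/kg intravenous dose in five male Göttingen mini-pigs were measured by TFC/LC/MS/MS against spiked-plasma calibration, sampling to 240 h. Vehicle: 50 mM K2HPO4, 0.05% tween 80, pH 8.0. Individual profiles analysed non-compartmentally for half-life.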
Turning to `CC[C@H](C)[C@H](NC(=O)[C@H](Cc1ccc(O)cc1)NC(=O)[C@H](CCCNC(=N)N)NC(=O)[C@H](CCCNC(=N)N)NC(=O)[C@H](CC(C)C)NC(=O)[C@H](CC(=O)O)NC(=O)[C@H](C)NC(=O)[C@H](C)NC(=O)[C@H](Cc1ccc(O)cc1)NC(=O)[C@H](CCC(N)=O)NC(=O)[C@H](C)NC(=O)[C@H](CCSC)NC(=O)[C@H](CCC(N)=O)NC(=O)[C@H](CCC(=O)O)NC(=O)[C@@H]1CCCN1C(=O)[C@@H](NC(=O)[C@H](C)NC(=O)[C@H](CC(N)=O)NC(=O)[C@H](CC(=O)O)NC(=O)CNC(=O)[C@@H]1CCCN1C(=O)[C@H](Cc1ccc(O)cc1)NC(=O)[C@@H](NC(=O)[C@@H]1CCCN1C(=O)[C@H](CCC(=O)O)NC(=O)[C@H](CC(C)C)NC(=O)[C@@H]1CCCN1)C(C)C)[C@@H](C)O)C(=O)N[C@@H](CC(N)=O)C(=O)N[C@@H](CCSC)C(=O)N[C@@H](CCCCNC(=O)COCCOCCNC(=O)COCCOCCNC(=O)CC[C@H](NC(=O)CCCCCCCCCCCCCCCCC(=O)O)C(=O)O)C(=O)N[C@H](C(=O)N[C@@H](CCCNC(=N)N)C(=O)N1CCC[C@H]1C(=O)N[C@@H](CCCNC(=N)N)C(=O)N[C@@H](Cc1ccc(O)cc1)C(N)=O)[C@@H](C)O` [Compound C] (H-PLEPVYPGDNATPEQMAQYAADLRRYINMK([AEEA-AEEA-γGlu-C18 diacid])TRPRY-NH2; N-terminus and C-terminus assumed), the half-life was 94 h.
With `CC[C@H](C)[C@H](NC(=O)[C@H](Cc1ccc(O)cc1)NC(=O)[C@H](CCCCNC(=O)COCCOCCNC(=O)COCCOCCNC(=O)CC[C@H](NC(=O)CCCCCCCCCCCCCCCCC(=O)O)C(=O)O)NC(=O)[C@H](CCCNC(=N)N)NC(=O)[C@H](CC(C)C)NC(=O)[C@H](CC(=O)O)NC(=O)[C@H](C)NC(=O)[C@H](C)NC(=O)[C@H](Cc1ccc(O)cc1)NC(=O)[C@H](CCC(N)=O)NC(=O)[C@H](C)NC(=O)[C@H](CCSC)NC(=O)[C@H](CCC(N)=O)NC(=O)[C@H](CCC(=O)O)NC(=O)[C@@H]1CCCN1C(=O)[C@@H](NC(=O)[C@H](C)NC(=O)[C@H](CC(N)=O)NC(=O)[C@H](CC(=O)O)NC(=O)CNC(=O)[C@@H]1CCCN1C(=O)[C@H](Cc1ccc(O)cc1)NC(=O)[C@@H](NC(=O)[C@@H]1CCCN1C(=O)[C@H](CCC(=O)O)NC(=O)[C@H](CC(C)C)NC(=O)[C@@H]1CCCN1)C(C)C)[C@@H](C)O)C(=O)N[C@@H](CC(N)=O)C(=O)N[C@@H](CCSC)C(=O)N[C@@H](CC(C)C)C(=O)N[C@H](C(=O)N[C@@H](CCCNC(=N)N)C(=O)N1CCC[C@H]1C(=O)N[C@@H](CCCNC(=N)N)C(=O)N[C@@H](Cc1ccc(O)cc1)C(N)=O)[C@@H](C)O` [Compound H] the figure was 62 h; with `CC[C@H](C)[C@H](NC(=O)[C@H](Cc1ccc(O)cc1)NC(=O)[C@H](CCCNC(=N)N)NC(=O)[C@H](CCCNC(=N)N)NC(=O)[C@H](CC(C)C)NC(=O)[C@H](CC(=O)O)NC(=O)[C@H](C)NC(=O)[C@H](C)NC(=O)[C@H](Cc1ccc(O)cc1)NC(=O)[C@H](CCC(N)=O)NC(=O)[C@H](C)NC(=O)[C@H](CCSC)NC(=O)[C@H](CCC(N)=O)NC(=O)[C@H](CCC(=O)O)NC(=O)[C@@H]1CCCN1C(=O)[C@@H](NC(=O)[C@H](C)NC(=O)[C@H](CC(N)=O)NC(=O)[C@H](CC(=O)O)NC(=O)CNC(=O)[C@@H]1CCCN1C(=O)[C@H](CCCCNC(=O)COCCOCCNC(=O)COCCOCCNC(=O)CC[C@H](NC(=O)CCCCCCCCCCCCCCCCC(=O)O)C(=O)O)NC(=O)[C@@H](NC(=O)[C@@H]1CCCN1C(=O)[C@H](CCC(=O)O)NC(=O)[C@H](CC(C)C)NC(=O)[C@@H]1CCCN1)C(C)C)[C@@H](C)O)C(=O)N[C@@H](CC(N)=O)C(=O)N[C@@H](CCSC)C(=O)N[C@@H](CC(C)C)C(=O)N[C@H](C(=O)N[C@@H](CCCNC(=N)N)C(=O)N1CCC[C@H]1C(=O)N[C@@H](CCCNC(=N)N)C(=O)N[C@@H](Cc1ccc(O)cc1)C(N)=O)[C@@H](C)O` [Compound AA], 17 h; with `CC[C@H](C)[C@H](NC(=O)[C@H](Cc1ccc(O)cc1)NC(=O)[C@H](CCCNC(=N)N)NC(=O)[C@H](CCCNC(=N)N)NC(=O)[C@H](CC(C)C)NC(=O)[C@H](CC(=O)O)NC(=O)[C@H](C)NC(=O)[C@H](C)NC(=O)[C@H](Cc1ccc(O)cc1)NC(=O)[C@H](CCC(N)=O)NC(=O)[C@H](C)NC(=O)[C@H](CCSC)NC(=O)[C@H](CCC(N)=O)NC(=O)[C@H](CCC(=O)O)NC(=O)[C@@H]1CCCN1C(=O)[C@@H](NC(=O)[C@H](C)NC(=O)[C@H](CC(N)=O)NC(=O)[C@H](CC(=O)O)NC(=O)CNC(=O)[C@@H]1CCCN1C(=O)[C@H](Cc1ccc(O)cc1)NC(=O)[C@@H](NC(=O)[C@@H]1CCCN1C(=O)[C@H](CCC(=O)O)NC(=O)[C@@H](N)CC(C)C)C(C)C)[C@@H](C)O)C(=O)N[C@@H](CCCCNC(=O)COCCOCCNC(=O)COCCOCCNC(=O)CC[C@H](NC(=O)CCCCCCCCCCCCCCCCC(=O)O)C(=O)O)C(=O)N[C@@H](CCSC)C(=O)N[C@@H](CC(C)C)C(=O)N[C@H](C(=O)N[C@@H](CCCNC(=N)N)C(=O)N1CCC[C@H]1C(=O)N[C@@H](CCCNC(=N)N)C(=O)N[C@@H](Cc1ccc(O)cc1)C(N)=O)[C@@H](C)O` [Compound AM] (H-LEPVYPGDNATPEQMAQYAADLRRYIK([AEEA-AEEA-γGlu-C18 diacid])MLTRPRY-NH2; N-terminus and C-terminus assumed), 70 h.
Take `CC[C@H](C)[C@H](NC(=O)[C@H](Cc1ccc(O)cc1)NC(=O)[C@H](CCCNC(=N)N)NC(=O)[C@H](CCCNC(=N)N)NC(=O)[C@H](CC(C)C)NC(=O)[C@H](CC(=O)O)NC(=O)[C@H](C)NC(=O)[C@H](C)NC(=O)[C@H](Cc1ccc(O)cc1)NC(=O)[C@H](CCC(N)=O)NC(=O)[C@H](C)NC(=O)[C@H](CCSC)NC(=O)[C@H](CCC(N)=O)NC(=O)[C@H](CCC(=O)O)NC(=O)[C@@H]1CCCN1C(=O)[C@@H](NC(=O)[C@H](C)NC(=O)[C@H](CC(N)=O)NC(=O)[C@H](CC(=O)O)NC(=O)CNC(=O)[C@@H]1CCCN1C(=O)[C@H](CCCCNC(=O)COCCOCCNC(=O)COCCOCCNC(=O)CC[C@H](NC(=O)CCCCCCCCCCCCCCCCC(=O)O)C(=O)O)NC(=O)[C@@H](NC(=O)[C@@H]1CCCN1C(=O)[C@H](CCC(=O)O)NC(=O)[C@@H](N)CC(C)C)C(C)C)[C@@H](C)O)C(=O)N[C@@H](CC(N)=O)C(=O)N[C@@H](CCSC)C(=O)N[C@@H](CC(C)C)C(=O)N[C@H](C(=O)N[C@@H](CCCNC(=N)N)C(=O)N1CCC[C@H]1C(=O)N[C@@H](CCCNC(=N)N)C(=O)N[C@@H](Cc1ccc(O)cc1)C(N)=O)[C@@H](C)O` [Compound BI]: the half-life was 9 h.
